This is an account of results in ChEMBL document CHEMBL1201862, “PubChem BioAssay data set” (2004).

Each structure is given as a SMILES string. The source made the active and inactive calls. Rule as the data show it, for most assays here: actives have a measured EC50 and inactives only a lower limit.

Assay [1] deals with T1, Heat shock factor protein 1 (Mus musculus, UniProt P38532).
T1 sequence (P38532 whole entry): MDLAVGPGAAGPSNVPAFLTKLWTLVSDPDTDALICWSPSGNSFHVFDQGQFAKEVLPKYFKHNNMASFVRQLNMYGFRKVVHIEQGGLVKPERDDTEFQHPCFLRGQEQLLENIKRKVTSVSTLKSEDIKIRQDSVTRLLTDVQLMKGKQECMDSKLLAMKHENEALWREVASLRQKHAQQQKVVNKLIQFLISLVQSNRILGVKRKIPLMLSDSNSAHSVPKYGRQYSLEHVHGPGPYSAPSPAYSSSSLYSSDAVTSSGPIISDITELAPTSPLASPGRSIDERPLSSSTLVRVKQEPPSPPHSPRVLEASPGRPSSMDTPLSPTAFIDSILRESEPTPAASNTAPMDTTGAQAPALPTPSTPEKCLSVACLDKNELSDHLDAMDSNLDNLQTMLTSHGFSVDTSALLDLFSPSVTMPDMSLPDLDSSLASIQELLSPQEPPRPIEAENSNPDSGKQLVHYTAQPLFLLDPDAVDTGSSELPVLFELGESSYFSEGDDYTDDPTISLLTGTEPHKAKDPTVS
Briefly: enhancement of HSF1-driven luciferase signal – cell-based, NIH3T3, luminescence, dose retest, confirmation (AID 435004).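 Also: stress induced by proteasome inhibitor MG132 added 30 min after compound; luciferase reporter driven by HSF1 response element in NIH3T3 cells; actives raise luminescence as potentiators of the MG132 stress response.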 Format: functional.

Assay [2] is described as follows: viability of uninfected HEp-2 cells – cell-based, HTS, cytotoxicity control for RSV inhibitor project, dose response (AID 2410). Format: functional. Conditions: human respiratory syncytial virus.
Assay [3] relates to Streptococcus sp. 'group A'. Briefly: Streptococcus pyogenes SK(-)GAS viability under kanamycin – luminescence, BacTiterGlo, confirmation, counter-screen for streptokinase expression inhibitor project, dose response (AID 1900). Format: functional, organism-based. Background: A counterscreen serves to expose hits that act by an unwanted route or on another target.
Assay [4] addresses T2, Streptokinase A (Streptococcus pyogenes serotype M1, UniProt P10520).
T2 sequence (P10520 whole entry): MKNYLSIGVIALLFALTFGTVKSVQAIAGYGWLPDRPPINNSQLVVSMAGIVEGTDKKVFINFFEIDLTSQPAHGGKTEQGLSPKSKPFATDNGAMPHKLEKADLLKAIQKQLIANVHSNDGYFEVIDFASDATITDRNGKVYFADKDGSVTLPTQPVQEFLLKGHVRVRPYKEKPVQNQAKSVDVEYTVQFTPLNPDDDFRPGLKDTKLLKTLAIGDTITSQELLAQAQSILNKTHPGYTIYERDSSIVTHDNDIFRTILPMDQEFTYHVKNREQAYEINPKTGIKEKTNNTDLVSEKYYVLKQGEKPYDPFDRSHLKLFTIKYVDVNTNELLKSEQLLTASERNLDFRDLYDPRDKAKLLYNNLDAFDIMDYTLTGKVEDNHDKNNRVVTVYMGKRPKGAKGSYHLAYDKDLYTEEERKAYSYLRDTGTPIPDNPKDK
Briefly: viability-normalized secreted streptokinase activity reduction – plasminogen activation absorbance, OD405, dose response (AID 1914).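 Also: secreted streptokinase activity via plasminogen activation per viability signal from cell pellet.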 Format: functional, Streptococcus pyogenes M1 GAS.

Assay [5] concerns Streptococcus. Briefly: GAS UMAA2166 growth inhibition – luminescence, BacTiterGlo, counter-screen for streptokinase expression inhibitor project, dose response (AID 1915).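 Also: potency for reduction of bacterial viability or growth.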 Format: functional, organism-based.
A short description of assay [6]: luciferase reporter signal suppression in cells – H4 neuroglioma cells, luminescence, dose response (AID 1990). Format: functional, cell-based. On the technique in general: In a reporter assay the amount or activity of a reporter protein is the signal.
The nature of assay [7]: Luminescence Cell-Based Dose Response HTS to Identify Inhibitors of 5'UTR Stem-Loop Driven Prion Protein mRNA Translation in H4 Neuroglioblastoma Cells. [Related pubchem assays: 1827 (Project Summary), 1813 (Primary HTS)]. The class given is functional.
A short description of assay [8]: alpha-synuclein stem-loop luciferase translation blockers – H4 neuroglioma cells, luminescence, confirmation (AID 1988). The class given is functional, cell-based.
The nature of assay [9]: Trypanosoma cruzi growth suppression in host cells – NIH3T3 host cells, beta-gal luminescence, confirmation (AID 2044).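 Also: intracellular parasites grown in NIH/3T3 mouse fibroblasts as host cells; luminescent beta-galactosidase reporter signal from transgenic T. cruzi replicating inside host cells; inhibitors lower the luminescence signal.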 The class given is functional, cell-based.
Assay [10] is described as follows: NIH3T3 cell viability loss – ATP luminescence, mouse fibroblasts, counter-screen, dose response (AID 2010).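 Also: cells exposed to compound for about 90 hours before reading.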 Format: functional, cell-based.

As a reminder, the EC50 is the concentration that produces a half-maximal response. For `Cc1cccc(CN(C(S)=Nc2c(C)cccc2C)c2cccnc2)c1`, the EC50 in [1] was > 260 µM (inactive).
On the same count and under the same terms, the figure for `CC(=O)c1ccc(NC(=O)CCCN2C(=O)/C(=C/C(C)=C/c3ccccc3)SC2=S)cc1` is 106 µM (active).
The CC50 is the concentration giving 50% cytotoxicity. For `N#C/C(=C(/O)CN1CCN(c2ccccc2F)CC1)c1nc(-c2ccccc2)cs1`, the CC50 in assay [2] was 5 µM (active). For the same compound, the EC50 in assay [3] is 11.7 µM (active); in assay [4], > 150 µM (not active); in assay [5] it was 86.1 µM (active).
Consider `Cc1n[nH]c(C)c1CCCOc1ccccc1`, for which the EC50 in assay [3], in [4] and in [5] was > 150 µM (not active) throughout.
Consider `COCCCNCCOc1ccc(C)cc1[N+](=O)[O-]`, for which the EC50 in [1] was > 260 µM (inactive).
As to `CCS(=O)(=O)N1Cc2ccccc2CC1C(=O)Nc1nnc(SCc2ccc(F)cc2)s1` (configuration not stated), the figures for the EC50 in assay [3], in assay [4] and in assay [5] were 8.48 µM (active), > 150 µM (not active) and 91.2 µM (active), respectively.
The matching figures for `C/C(=N\NC(=S)NCc1ccccc1)c1cccc(Br)c1`: 8.85 µM (active), > 150 µM (not active) and > 150 µM (not active).
On to `COc1cc2c(cc1NC(=O)COC(=O)[C@@H](NS(=O)(=O)c1ccccc1)C(C)C)oc1ccccc12`, for which the EC50 in [1] was > 260 µM (inactive).
With `Nc1nn2c(O)c3c(nc2c1N=Nc1ccc(Cl)cc1)CCCC3`, the EC50 in assay [3] was 6.99 µM (active); in [4], > 150 µM (not active); in assay [5], > 150 µM (not active).
In the case of `Cc1ccc(-c2nc3ncccn3c2Nc2ccccc2C)o1`, the EC50 in [1] is > 260 µM (inactive).
Still for that read-out and setting: for `Cc1ccc(S(=O)(=O)n2cnc3ccccc32)cc1[N+](=O)[O-]` the value was > 260 µM (inactive).
For the compound `CCOc1ccc(/C=N/NC(=S)NC2CC3CC2C2C=CCC32)cc1` (configuration not stated), the EC50 in assay [3] was 14.4 µM (active); in [4], > 150 µM (not active); in assay [5], 19.8 µM (active).
Regarding `CCc1ccccc1NC(=O)COc1ccc2c(=O)c(Oc3cc(C)ccc3C)coc2c1`, the EC50 in [1] was > 260 µM (inactive).
Same read-out and setting: the figure for `Clc1ccc(-c2nc(/C=N/N3CCOCC3)c3ccccn23)cc1` is > 260 µM (inactive).
Regarding `Cc1cccc(Oc2nc(-c3ccncc3)nc3ccccc23)c1`, the figures for the EC50 in assay [3], in assay [4] and in assay [5] were 10.9 µM (active), > 150 µM (not active) and 12.5 µM (active), respectively.
For `CC1(C)CC(=O)C/C(=N/NC(=O)CCCOc2ccc(Cl)cc2Cl)C1`, in assay [1], the EC50 is > 260 µM (inactive).
Same read-out and setting: the figure for `CCOC(=O)C1=C(CN2CCc3ccccc32)NC(=O)NC1c1ccc(Cl)cc1` (configuration not stated) is > 260 µM (inactive).
As to `Cc1ccc(C2CC(c3cccs3)=NN2C(=O)c2ccc(Br)o2)cc1` (configuration not stated), the EC50 in assay [3] was 3.12 µM (active); in [4], > 150 µM (not active); in [5], 34.1 µM (active).
Consider `Cc1c(C(=O)NCc2ccc3c(c2)OCO3)oc2ccc(S(=O)(=O)N3CCCCCC3)cc12`, for which the EC50 is 14.9 µM (active) in assay [6]; 15 µM (active) in [7]; 25.5 µM (active) in assay [8]; 775 nM (active) in assay [9]; > 60 µM (not active) in [10].
Turning to `COc1ccccc1N1CCN(C(=O)c2ccc3c(=O)n(Cc4ccco4)c(=S)[nH]c3c2)CC1`, in [1], the EC50 was > 260 µM (inactive).
On to `COc1ccccc1N1CCN(S(=O)(=O)CCNC(=O)c2cc(OC)c(OC)c(OC)c2)CC1`, for which the EC50 is > 120 µM (not active) in assay [6], > 120 µM (not active) in assay [7] and 10.6 µM (active) in assay [8].
On to `Oc1nc(CN2CC=C(c3ccccc3)CC2)nc2scc(-c3cccs3)c12`, for which the EC50 in assay [3] is 12.2 µM (active); in assay [4], > 150 µM (not active); in assay [5] it was > 150 µM (not active).
